PubChem BioAssay (NCI)
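Values below derive from 48-hour exposures of cells grown in 96-well plates, with endpoints linearly interpolated between the two concentrations bracketing the appropriate inhibition level. GI50: concentration for 50% inhibition of growth. Definition used: TGI = concentration required for complete inhibition of growth.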

How the values were obtained:
Test in all cases: inhibition of tumour cell growth, NCI panel, 48 h
786-0 renal = system: 786-0 renal
EKVX NSCLC = system: EKVX NSCLC
MCF7 breast = system: MCF7 breast
OVCAR-4 ovarian = system: OVCAR-4 ovarian
RPMI-8226 leukemia = system: RPMI-8226 leukemia
SF-295 CNS = system: SF-295 CNS
SF-539 CNS = system: SF-539 CNS
SK-MEL-28 melanoma = system: SK-MEL-28 melanoma
SN12C renal = system: SN12C renal
UACC-257 melanoma = system: UACC-257 melanoma

Row | SMILES | TGI (786-0 renal) [µM] | TGI (EKVX NSCLC) [µM] | TGI (MCF7 breast) [µM] | TGI (OVCAR-4 ovarian) [µM] | TGI (RPMI-8226 leukemia) [µM] | TGI (SF-295 CNS) [µM] | TGI (SF-539 CNS) [µM] | TGI (SK-MEL-28 melanoma) [µM] | TGI (SN12C renal) [µM] | TGI (UACC-257 melanoma) [µM] | GI50 (786-0 renal) [µM] | GI50 (EKVX NSCLC) [µM] | GI50 (MCF7 breast) [µM] | GI50 (OVCAR-4 ovarian) [µM] | GI50 (RPMI-8226 leukemia) [µM] | GI50 (SF-295 CNS) [µM] | GI50 (SF-539 CNS) [µM] | GI50 (SK-MEL-28 melanoma) [µM] | GI50 (SN12C renal) [µM] | GI50 (UACC-257 melanoma) [µM]
1 | CC(/C=C/C=C\C=C\C=C(/C)C(=O)NC(C)CO)=C\C(C)C(O)/C(C)=C/C(C)CCc1ccccc1 (stereo not given) | 26.4 | > 80.6 | 19.7 | 37.4 | > 78.6 | 13.4 | 27.1 | 25.9 | 26.4 | 12.3 |  |  |  |  |  |  |  |  |  | 
2 | Cc1ccc(C(=O)Nc2ccc(CN3CCN(C)CC3)c(C(F)(F)F)c2)cc1C#Cc1cnc(N)c2ccc(C#N)cc12 | 3.79 | > 50 | 29.6 | 11.8 | 19.4 | > 50 | 12.3 | 3.47 | 3.07 | > 35 | 0.426 | 9.46 | 4.21 | 0.375 | 1.08 | 8.85 | 3.52 | 0.108 | 0.0164 | 0.332
3 | COc1ccc(/C=C(/C(=O)N2CCN(c3ccc(C)cc3)CC2)c2cc(OC)c(OC)c(OC)c2)cc1N | > 100 | > 100 | > 100 | > 100 | > 33.7 | > 100 | 0.717 | > 100 | > 100 | > 100 | 0.32 | 0.628 | 0.228 | 3.21 | 0.284 | 0.287 | 0.176 | 0.54 | 0.483 | > 87.3
4 | C/C(=N\N)C(CN1CCCCC1)C(c1ccccc1)c1c(O)c2ccccc2oc1=O (stereo not given) | > 100 | > 100 | > 100 | > 100 | > 100 | > 100 | > 100 | > 100 | > 100 | > 100 |  |  |  |  |  |  |  |  |  | 
5 | COc1ccc(C(=O)OC2C(OC3C(O)COC(O[C@H]4C[C@H]5[C@@H]6CC=C7C[C@@H](O)CC[C@]7(C)[C@H]6CC[C@]5(C)[C@H]4[C@H](C)C(=O)CCC(C)C)C3OC(=O)C(C)C)OCC(O)C2O)cc1 (stereo not given in full) | 2.99 | 3.87 | 2.99 | 5.12 | 0.01 | 0.00385 | 0.0289 | 0.0612 | 6.53 | 0.114 | < 0.00275 | 0.0163 | 0.0136 | 0.295 | < 0.00275 | < 0.00275 | < 0.00275 | 0.011 | 3.02 | 0.0342
6 | COc1ccc(-c2cc(=O)c3c(OC)c(O)c(OC)cc3o2)cc1 | > 100 | > 100 | > 100 | > 100 | 99.3 | > 100 | > 100 | > 100 | > 100 | > 100 |  |  |  |  |  |  |  |  |  | 
7 | Cc1cc(NCCCNc2ccnc3cc(Cl)ccc23)nc(Nc2ccc(C(=O)N3CCCCC3)cc2)n1 | 3.72 | 16 | 4.09 | 12.6 | 5.66 | 3.89 | 3.56 | 3.75 | 5.52 | 4.56 | 1.83 | 3.65 | 1.82 | 2.83 | 2.27 | 2.02 | 1.89 | 2 | 2.33 | 2.39
8 | O=S1(=O)OCc2ccccc21 | > 100 | > 100 | > 100 | > 100 | > 100 | > 100 | > 100 | > 100 | > 100 | > 100 |  |  |  |  |  |  |  |  |  | 
9 | C=C(C)[C@@H]1CC[C@]2(C(=O)N3CCN(C)CC3)CC[C@]3(C)[C@H](CC[C@@H]4[C@@]5(C)C/C(=C/c6ccncc6)[C@H](O)C(C)(C)[C@@H]5CC[C@]43C)[C@@H]12 | 13.3 | 43.2 | 13.8 | > 100 | 17 | 25.5 | 16.5 | 22.2 | 22.3 | 27.8 | 2.71 | 6.04 | 3.29 | 7.08 | 3.01 | 7.2 | 4.12 | 7.46 | 6.22 | 5.45
10 | CCCCCCCCCCCCCCCCCc1cc(Cl)nc(Cl)n1 | > 100 | > 100 | > 100 | > 100 | > 100 | > 100 | > 100 | > 100 | > 100 | > 100 |  |  |  |  |  |  |  |  |  | 
